We go through 2 substances from US20020160012A1, “Vaccine chip technology exploiting immunostimulating fragment of TGF-BETA” (priority 2000, published 2002).

The nature of series [1]: Clinical signs of immunised rabbits. Particulars: Example 1; subcutaneous, 3 immunisations at 2 week intervals. It is filed as in vivo. An excerpt:
(§1) Before immunisation, a pre-immunisation serum sample (T0) of each rabbit were collected. Two weeks after the last of 3 immunisations (given at 2 week intervals) an immune serum sample (T1) was collected from each rabbit. Hereafter further immune serum samples were collected T2 (4 weeks after T1); T3 (four weeks after T2) etc.
Before immunisation, a pre-immunisation serum sample (T0) of each rabbit were collected. Before each of the following immunisations (given at 2 week intervals) an immune serum sample (T1, T2, T3 or T4 ) was collected from each rabbit. The serum sampling frequency is higher compared with example 1.
(§2) Before immunisation, a pre-immunisation serum sample (T0) of each rabbit was collected. Before each of the following immunisations (given at 2 week intervals) an immune serum sample (T1, T2, or T3) was collected from each rabbit.

In series [2] the test system is parvovirus peptide. The experiment in a line: Rabbit immunisation with Parv or Parv+TGF-29, serum ELISA for antibody titre (Example 1). It is filed as in vivo, rabbits. Particulars: immune serum samples vs corresponding T0 sera; 3 subcutaneous immunisations at 2 week intervals; freunds incomplete adjuvant. The protocol:
Both preparations were subcutaneously injected into 2 groups of rabbits. The content of each injected dose of 0.2 mL were:
The rabbits were immunised by subcuteous injection according to normal standard immunisation procedures for antibody production in rabbits at a legal laboratory animal facility.
as §1
(§3) The serum samples were analysed on an ELISA plate according to standard laboratory operations: Coating the plate bottom with parvo virus peptide derivative overnight, washings, incubation with serial dilutions of all serum samples, washings, incubation with HRP-Goat anti Rabbit Ig, washings, incubation with substrate, stop reaction with acid, and reading of the plate.
A general note: In an ELISA, binding on a coated surface is turned into a signal by an enzyme label.

The subject of series [3] is parvovirus peptide. Put plainly: Rabbit immunisation with parvovirus peptide, TGF-29 dose and Titermax adjuvant, serum ELISA (Example 3). It is filed as in vivo, rabbits. The note with it: bleeding T3 (6 weeks after first immunisation); 20 ug TGF-29 + 100 ug parvovirus peptide + Titermax (preparation Iris). How it is done: Both preparations were subcutaneously injected into 2 groups of rabbits. Each injected dose was 0, 1 mL and the preparations for a resulting volume between 0,4 and 0,5 mL was made as follows:
The rabbits were then immunised according to the normal standard immunisation procedure for antibody production in rabbits at a legal laboratory animal facility.
as §2, §3

No end group written: not given here.

Ac-CDGAVQPDGGQPAVRNER-NH2 [Parv]: the unusual clinical signs result in series [1] was “None of the rabbits showed any unusual clinical signs”. Besides, the “antibody titre to the parvovirus peptide” value in the series with parvovirus peptide [2] is on record as “Non-detectable or less antibody titre to the parvovirus peptide than in the corresponding T0 sera”.

On to “ALDAAYCFRNVQDNCCLRPLYIDFKRDLG (cysteine pairing not given here) [TGF-29, N-terminal 29 amino acid fragment of mature TGF-β]”, for which, in the series with parvovirus peptide [3], the “titer to the parvovirus peptide compared with the corresponding T0 serum” value is given as “more than three 5-fold serial antiserum dilutions better” and the “titer to the parvovirus peptide, rank among all bleedings of the example” value was “highest titer”.
